Measurements as given in PubChem BioAssay (NCI).
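In this assay, cells in 96-well plates receive the compound at five concentrations for 48 hours. Endpoints are linearly interpolated between the surrounding concentrations. The concentration for 50% growth inhibition is given as GI50. TGI denotes the concentration required for complete inhibition of growth.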

How the values were obtained:
Assay in all cases: NCI tumour cell line growth inhibition, 48 h
786-0 renal = test system: 786-0 renal
A498 renal = test system: A498 renal
A549 NSCLC = test system: A549 NSCLC
ACHN renal = test system: ACHN renal
BT-549 breast = test system: BT-549 breast
CAKI-1 renal = test system: CAKI-1 renal
CCRF-CEM leukemia = test system: CCRF-CEM leukemia
COLO 205 colon = test system: COLO 205 colon
DU-145 prostate = test system: DU-145 prostate
EKVX NSCLC = test system: EKVX NSCLC
HCC-2998 colon = test system: HCC-2998 colon
HCT-116 colon = test system: HCT-116 colon
HCT-15 colon = test system: HCT-15 colon
HL-60(TB) leukemia = test system: HL-60(TB) leukemia
HOP-62 NSCLC = test system: HOP-62 NSCLC
HOP-92 NSCLC = test system: HOP-92 NSCLC
HS 578T breast = test system: HS 578T breast
HT29 colon = test system: HT29 colon
IGROV1 ovarian = test system: IGROV1 ovarian
K-562 leukemia = test system: K-562 leukemia
KM12 colon = test system: KM12 colon
LOX IMVI melanoma = test system: LOX IMVI melanoma
M14 melanoma = test system: M14 melanoma
MALME-3M melanoma = test system: MALME-3M melanoma
MCF7 breast = test system: MCF7 breast
MDA-MB-231 breast = test system: MDA-MB-231 breast
MDA-MB-435 = test system: MDA-MB-435
MDA-MB-468 breast = test system: MDA-MB-468 breast
MOLT-4 leukemia = test system: MOLT-4 leukemia
NCI-H226 lung = test system: NCI-H226 lung
NCI-H23 lung = test system: NCI-H23 lung
NCI-H460 lung = test system: NCI-H460 lung
NCI-H522 lung = test system: NCI-H522 lung
OVCAR-3 ovarian = test system: OVCAR-3 ovarian
OVCAR-4 ovarian = test system: OVCAR-4 ovarian
OVCAR-5 ovarian = test system: OVCAR-5 ovarian
OVCAR-8 ovarian = test system: OVCAR-8 ovarian
PC-3 prostate = test system: PC-3 prostate
RPMI-8226 leukemia = test system: RPMI-8226 leukemia
RXF 393 renal = test system: RXF 393 renal
SF-268 CNS = test system: SF-268 CNS
SF-295 CNS = test system: SF-295 CNS
SF-539 CNS = test system: SF-539 CNS
SK-MEL-2 melanoma = test system: SK-MEL-2 melanoma
SK-MEL-28 melanoma = test system: SK-MEL-28 melanoma
SK-MEL-5 melanoma = test system: SK-MEL-5 melanoma
SK-OV-3 ovarian = test system: SK-OV-3 ovarian
SN12C renal = test system: SN12C renal
SNB-19 CNS = test system: SNB-19 CNS
SR leukemia = test system: SR leukemia
SW-620 colon = test system: SW-620 colon
T-47D breast = test system: T-47D breast
TK-10 renal = test system: TK-10 renal
U251 CNS = test system: U251 CNS
UACC-257 melanoma = test system: UACC-257 melanoma
UACC-62 melanoma = test system: UACC-62 melanoma
UO-31 renal = test system: UO-31 renal

In the case of `O=C1CCC(N2C(=O)c3cccc(NCCOCCOCCOCCC(=O)NCCCC(=O)NC(c4ccc5c(c4)OCO5)c4cc(Cl)c5cccnc5c4O)c3C2=O)C(=O)C1` (centres undefined), the GI50 (786-0 renal) was 29.6 µM, the TGI (786-0 renal) was > 99 µM and the GI50 (A498 renal) was > 99 µM. For the same compound, the TGI (A498 renal) was > 99 µM, the GI50 (A549 NSCLC) was 41.5 µM and the TGI (A549 NSCLC) was > 99 µM. The GI50 (ACHN renal) was 52.5 µM, the TGI (ACHN renal) was > 99 µM and the GI50 (BT-549 breast) was 8.58 µM. For the same compound, the TGI (BT-549 breast) was 42.3 µM, the GI50 (CAKI-1 renal) was 28.3 µM and the TGI (CAKI-1 renal) was > 99 µM. For the same compound, the GI50 (CCRF-CEM leukemia) was 3.34 µM, the TGI (CCRF-CEM leukemia) was > 99 µM and the GI50 (COLO 205 colon) was 5.04 µM. For the same compound, the TGI (COLO 205 colon) was > 99 µM, the GI50 (DU-145 prostate) was 37.5 µM and the TGI (DU-145 prostate) was > 99 µM. For the same compound, the GI50 (EKVX NSCLC) was 17.2 µM, the TGI (EKVX NSCLC) was > 99 µM and the GI50 (HCC-2998 colon) was 6.03 µM. For the same compound, the TGI (HCC-2998 colon) was 30.8 µM, the GI50 (HCT-116 colon) was 22.2 µM and the TGI (HCT-116 colon) was > 99 µM. For the same compound, the GI50 (HCT-15 colon) was 37.4 µM, the TGI (HCT-15 colon) was > 99 µM and the GI50 (HL-60(TB) leukemia) was 2.41 µM. The TGI (HL-60(TB) leukemia) was 23.1 µM, the GI50 (HOP-62 NSCLC) was 7.19 µM and the TGI (HOP-62 NSCLC) was > 99 µM. It also gave a GI50 (HOP-92 NSCLC) of 4.29 µM, a TGI (HOP-92 NSCLC) of 52.3 µM and a GI50 (HS 578T breast) of 8.43 µM. For the same compound, the TGI (HS 578T breast) was > 99 µM, the GI50 (HT29 colon) was 26.4 µM and the TGI (HT29 colon) was > 99 µM. The GI50 (IGROV1 ovarian) was 3.77 µM, the TGI (IGROV1 ovarian) was > 99 µM and the GI50 (K-562 leukemia) was 5.3 µM. For the same compound, the TGI (K-562 leukemia) was > 99 µM, the GI50 (KM12 colon) was 4.5 µM and the TGI (KM12 colon) was > 99 µM. For the same compound, the GI50 (LOX IMVI melanoma) was 4.29 µM, the TGI (LOX IMVI melanoma) was 22.2 µM and the GI50 (M14 melanoma) was 14 µM. For the same compound, the TGI (M14 melanoma) was > 99 µM, the GI50 (MALME-3M melanoma) was 11.8 µM and the TGI (MALME-3M melanoma) was 90.8 µM. For the same compound, the GI50 (MCF7 breast) was 3.69 µM, the TGI (MCF7 breast) was > 99 µM and the GI50 (MDA-MB-231 breast) was 4.32 µM. The TGI (MDA-MB-231 breast) was 29.5 µM, the GI50 (MDA-MB-435) was 5.8 µM and the TGI (MDA-MB-435) was > 99 µM. For the same compound, the GI50 (MDA-MB-468 breast) was 2.56 µM, the TGI (MDA-MB-468 breast) was 7.77 µM and the GI50 (MOLT-4 leukemia) was 4.8 µM. The TGI (MOLT-4 leukemia) was > 99 µM, the GI50 (NCI-H226 lung) was 14.5 µM and the TGI (NCI-H226 lung) was 72.2 µM. For the same compound, the GI50 (NCI-H23 lung) was 12.7 µM, the TGI (NCI-H23 lung) was > 99 µM and the GI50 (NCI-H460 lung) was 4.81 µM. For the same compound, the TGI (NCI-H460 lung) was 42.9 µM, the GI50 (NCI-H522 lung) was 4.39 µM and the TGI (NCI-H522 lung) was 41.5 µM. For the same compound, the GI50 (OVCAR-3 ovarian) was 3.33 µM, the TGI (OVCAR-3 ovarian) was > 99 µM and the GI50 (OVCAR-4 ovarian) was 14.4 µM. For the same compound, the TGI (OVCAR-4 ovarian) was 84.3 µM, the GI50 (OVCAR-5 ovarian) was 19.5 µM and the TGI (OVCAR-5 ovarian) was > 99 µM. The GI50 (OVCAR-8 ovarian) was 11.9 µM, the TGI (OVCAR-8 ovarian) was 75.1 µM and the GI50 (PC-3 prostate) was 7.83 µM. For the same compound, the TGI (PC-3 prostate) was > 99 µM, the GI50 (RPMI-8226 leukemia) was 7.12 µM and the TGI (RPMI-8226 leukemia) was > 99 µM. It also gave a GI50 (RXF 393 renal) of 8.56 µM, a TGI (RXF 393 renal) of 33.3 µM and a GI50 (SF-268 CNS) of 4.38 µM. For the same compound, the TGI (SF-268 CNS) was > 99 µM, the GI50 (SF-295 CNS) was 25.4 µM and the TGI (SF-295 CNS) was > 99 µM. For the same compound, the GI50 (SF-539 CNS) was 4.21 µM, the TGI (SF-539 CNS) was 26.6 µM and the GI50 (SK-MEL-2 melanoma) was 4.89 µM. For the same compound, the TGI (SK-MEL-2 melanoma) was 34.6 µM, the GI50 (SK-MEL-28 melanoma) was 5.95 µM and the TGI (SK-MEL-28 melanoma) was 61 µM. For the same compound, the GI50 (SK-MEL-5 melanoma) was 14 µM, the TGI (SK-MEL-5 melanoma) was 43.8 µM and the GI50 (SK-OV-3 ovarian) was 14.6 µM. The TGI (SK-OV-3 ovarian) was > 99 µM, the GI50 (SN12C renal) was 5.42 µM and the TGI (SN12C renal) was > 99 µM. For the same compound, the GI50 (SNB-19 CNS) was 6.32 µM, the TGI (SNB-19 CNS) was > 99 µM and the GI50 (SR leukemia) was 5.26 µM. For the same compound, the TGI (SR leukemia) was > 99 µM, the GI50 (SW-620 colon) was 12.6 µM and the TGI (SW-620 colon) was > 99 µM. For the same compound, the GI50 (T-47D breast) was 5.06 µM, the TGI (T-47D breast) was > 99 µM and the GI50 (TK-10 renal) was 62.1 µM. For the same compound, the TGI (TK-10 renal) was > 99 µM, the GI50 (U251 CNS) was 6.8 µM and the TGI (U251 CNS) was > 99 µM. The GI50 (UACC-257 melanoma) was 8.95 µM, the TGI (UACC-257 melanoma) was 85.7 µM and the GI50 (UACC-62 melanoma) was 3.76 µM. The TGI (UACC-62 melanoma) was 22.7 µM, the GI50 (UO-31 renal) was 33.6 µM and the TGI (UO-31 renal) was > 99 µM.
